Data reported in patent US10144723B2, “Treatment of solid tumors by inhibiting MRK/ZAK” (The Feinstein Institute For Medical Research, priority 2014, dated 2018).
pIC50: −log10 of the molar value.

Tests used:
BCR-Abl = molecular target: T1, BCR-Abl (Homo sapiens, UniProt P00519); test: BCR-Abl activity in K562 cells, western blot; assay type: cell-based; conditions: 1 μM, 6 hours
T1 construct: BCR (N-terminal fusion partner, P11274); endogenous in cells; host or cells: K562; the other entry of the earlier key: BCR (P11274, Breakpoint cluster region protein)
T1 sequence (P00519 with tags, fused parts or gaps): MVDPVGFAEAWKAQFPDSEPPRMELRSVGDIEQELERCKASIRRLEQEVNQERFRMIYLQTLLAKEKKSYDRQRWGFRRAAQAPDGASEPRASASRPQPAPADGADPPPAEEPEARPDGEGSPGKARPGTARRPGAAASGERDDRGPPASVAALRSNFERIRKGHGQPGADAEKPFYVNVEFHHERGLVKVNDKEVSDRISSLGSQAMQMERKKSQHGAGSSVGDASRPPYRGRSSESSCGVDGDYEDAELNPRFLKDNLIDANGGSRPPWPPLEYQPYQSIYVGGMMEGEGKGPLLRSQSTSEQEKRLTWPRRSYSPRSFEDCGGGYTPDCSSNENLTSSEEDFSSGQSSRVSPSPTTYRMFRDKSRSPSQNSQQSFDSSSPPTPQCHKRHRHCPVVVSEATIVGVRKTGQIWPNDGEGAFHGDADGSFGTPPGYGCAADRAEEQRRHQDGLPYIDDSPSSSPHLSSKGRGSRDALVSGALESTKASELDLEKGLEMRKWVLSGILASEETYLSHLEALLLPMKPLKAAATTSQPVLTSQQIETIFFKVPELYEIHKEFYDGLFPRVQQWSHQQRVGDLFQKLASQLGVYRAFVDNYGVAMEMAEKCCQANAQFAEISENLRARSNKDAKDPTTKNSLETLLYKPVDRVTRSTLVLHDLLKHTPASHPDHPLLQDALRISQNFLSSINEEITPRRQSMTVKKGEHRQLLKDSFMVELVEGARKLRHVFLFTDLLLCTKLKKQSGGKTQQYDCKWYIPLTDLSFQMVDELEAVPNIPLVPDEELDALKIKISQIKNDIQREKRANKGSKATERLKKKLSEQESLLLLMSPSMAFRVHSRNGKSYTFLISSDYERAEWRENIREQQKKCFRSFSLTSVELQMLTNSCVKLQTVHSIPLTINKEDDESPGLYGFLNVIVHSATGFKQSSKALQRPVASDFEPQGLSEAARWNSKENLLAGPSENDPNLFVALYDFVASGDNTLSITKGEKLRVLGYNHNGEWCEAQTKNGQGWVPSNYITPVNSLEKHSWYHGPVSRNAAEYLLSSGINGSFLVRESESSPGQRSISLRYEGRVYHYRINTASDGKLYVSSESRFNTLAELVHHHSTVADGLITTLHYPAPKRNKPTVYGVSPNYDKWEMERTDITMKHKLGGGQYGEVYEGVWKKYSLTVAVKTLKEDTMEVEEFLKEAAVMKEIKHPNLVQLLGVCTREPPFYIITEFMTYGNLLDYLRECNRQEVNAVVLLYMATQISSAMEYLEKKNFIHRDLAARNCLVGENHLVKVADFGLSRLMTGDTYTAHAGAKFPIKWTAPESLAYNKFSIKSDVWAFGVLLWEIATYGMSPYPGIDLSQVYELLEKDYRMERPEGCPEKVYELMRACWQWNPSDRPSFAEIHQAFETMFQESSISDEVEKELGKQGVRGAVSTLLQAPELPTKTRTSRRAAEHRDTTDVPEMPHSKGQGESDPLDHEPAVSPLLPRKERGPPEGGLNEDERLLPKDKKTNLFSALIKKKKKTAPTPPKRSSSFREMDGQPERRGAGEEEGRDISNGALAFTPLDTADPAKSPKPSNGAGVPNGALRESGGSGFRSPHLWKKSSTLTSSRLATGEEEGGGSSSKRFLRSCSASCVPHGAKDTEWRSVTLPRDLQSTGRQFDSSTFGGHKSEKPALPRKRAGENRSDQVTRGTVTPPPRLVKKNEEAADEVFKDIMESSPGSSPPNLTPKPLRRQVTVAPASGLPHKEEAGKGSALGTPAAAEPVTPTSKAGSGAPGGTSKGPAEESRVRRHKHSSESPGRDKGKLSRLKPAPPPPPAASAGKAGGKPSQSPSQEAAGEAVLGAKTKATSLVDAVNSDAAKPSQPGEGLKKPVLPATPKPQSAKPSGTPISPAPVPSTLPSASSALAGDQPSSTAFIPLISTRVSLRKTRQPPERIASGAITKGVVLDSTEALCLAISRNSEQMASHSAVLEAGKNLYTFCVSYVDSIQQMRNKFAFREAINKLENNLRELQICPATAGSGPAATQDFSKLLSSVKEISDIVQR
Protocol: (§1) FIG. 11. M443 inhibits MRK activity, but not BCR-Abl. K562 cells were treated with DMSO, 1 μM Nilotinib or 1 μM M443 for 6 hours and then they were processed for western blot with the indicated antibodies.

[1] = tested on: IMB226 medulloblastoma cells; test: Animal model of medulloblastoma, orthotopic implantation, survival; assay type: in vivo, nude mice
Protocol: FIG. 9. Kaplan-Meier survival curve. Three weeks after implantation of IMB226 medulloblastoma cells in nude mice, animals were randomized into 4 groups of 12 mice for each treatment. M443 or the vehicle were delivered directly into the tumor via an ALZET pump.
The effect of M443 was tested in an animal model of medulloblastoma that employs orthotopic implantation of IMB226 medulloblastoma cells in nude mice. M443 was administered directly into the tumor using an osmotic pump that is connected to a catheter implanted into the brain in order to bypass the blood-brain barrier.

[2] = tested on: UW228 medulloblastoma cells; test: Colony formation assay with radiation; assay type: cell-based; conditions: 6 hours M443 before radiation, colonies counted after 7 days
Protocol: FIG. 6. M443 sensitizes UW228 medulloblastoma cells to radiation. UW228 cells were seeded for the colony formation assay at 500 cells/dish. The following day, they were treated for 6 hours with the indicated doses of M443 and then exposed to different doses of radiation. After incubation at 37° C. for 7 days, colonies larger than 50 cells were counted.

Chk2 = test: IR-induced signaling downstream of MRK, phospho-Chk2 western blot; assay type: cell-based; conditions: UW228 cells, 500 nM M443 6 hours, 1 hour after IR
Protocol: (§2) FIG. 7. Inhibition of IR-induced signaling downstream of MRK by M443. UW228 medulloblastoma cells were treated with 500 nM of M443 or with vehicle for 6 hours, and then exposed to IR or not. One hour after IR treatment, cells were harvested and cell lysates were tested by western blot for the activities of MRK, p38 and Chk2 proteins using the respective phospho-specific antibodies.
(§3) By inhibiting MRK activity, M443 was expected to reduce signal transduction downstream of MRK. […] Thus, M443 inhibits MRK activation by IR and its downstream signaling events, which leads to loss of cell viability after exposure to IR.

c-Abl = c-Abl activity in brain lysates, phospho-Abl western blot; assay type: in vivo, nude mice; conditions: treated versus untreated tumor
Protocol: M443 is a derivative of nilotinib, an inhibitor of the BCR-Abl oncogene. To examine the specificity of M443, the activity of c-Abl was also determined, by blotting the brain lysates with a phospho-Abl-(P-c-Abl) specific antibody. […] As Abl is known to respond to stress, the increase in P-c-Abl may be caused by M443-induced cell stress.

4T1 breast cancer cells = test: MTT cell viability after X-ray irradiation; assay type: cell-based; conditions: 4T1 cells, M443 6 hours before irradiation, MTT 72 hours after
Protocol: FIG. 8. […] 4T1 breast cancer cells were plated in 96-well plates (750 cells per well/8 wells per condition) and treated with M443 at the indicated concentrations 6 hours before irradiating at the indicated dosages. 72 hours after irradiation MTT solution (1.25 μg/μl) was added to all wells and incubated for an additional 3 hours before cell viability/mitochondrial activity was analyzed. Shown are the means+/−SD of 8 replicate wells.

MRK [3] = molecular target: T2, MRK (Homo sapiens, UniProt Q9NYL2); test: Inhibition of endogenous MRK activity induced by radiation in medulloblastoma cells; assay type: cell-based; design: endogenous in cells; host or cells: UW228 medulloblastoma cells
T2 sequence (Q9NYL2 whole entry): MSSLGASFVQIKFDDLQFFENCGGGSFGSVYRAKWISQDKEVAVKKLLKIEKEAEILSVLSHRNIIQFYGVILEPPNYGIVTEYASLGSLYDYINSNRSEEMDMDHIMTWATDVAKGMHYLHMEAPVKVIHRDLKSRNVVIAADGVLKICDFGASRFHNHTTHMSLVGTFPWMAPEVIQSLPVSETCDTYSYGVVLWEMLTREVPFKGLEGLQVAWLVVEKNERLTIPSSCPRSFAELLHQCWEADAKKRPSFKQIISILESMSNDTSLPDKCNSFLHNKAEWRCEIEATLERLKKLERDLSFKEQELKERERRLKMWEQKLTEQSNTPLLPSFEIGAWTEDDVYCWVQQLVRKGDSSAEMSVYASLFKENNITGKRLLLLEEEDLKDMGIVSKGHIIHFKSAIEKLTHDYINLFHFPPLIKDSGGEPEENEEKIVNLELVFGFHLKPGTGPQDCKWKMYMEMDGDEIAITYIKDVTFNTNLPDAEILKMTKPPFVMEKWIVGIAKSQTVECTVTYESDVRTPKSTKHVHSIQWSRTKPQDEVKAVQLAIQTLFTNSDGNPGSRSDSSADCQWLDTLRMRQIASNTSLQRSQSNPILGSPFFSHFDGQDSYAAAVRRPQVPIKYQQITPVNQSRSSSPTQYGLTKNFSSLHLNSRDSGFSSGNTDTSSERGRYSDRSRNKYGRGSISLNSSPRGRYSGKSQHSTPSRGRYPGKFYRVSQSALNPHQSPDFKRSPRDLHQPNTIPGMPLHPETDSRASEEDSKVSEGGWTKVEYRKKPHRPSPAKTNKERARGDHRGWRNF
Protocol: FIG. 7. Inhibition of IR-induced signaling downstream of MRK by M443. […] One hour after IR treatment, cells were harvested and cell lysates were tested by western blot for the activities of MRK, p38 and Chk2 proteins using the respective phospho-specific antibodies.

MRK [4] = test: Inhibition of MRK in vivo, brain lysates western blot; design: species or system nude mice; conditions: 18 hours after pump implantation
Protocol: FIG. 10. Inhibition of MRK in vivo. Brains from control and M443-treated animals were harvested 18 hours after pump implantation. Each cerebellum was dissected from the rest of the brain and divided into left (L) and right (R), top (T) and bottom (B) portions. Brain lysates were tested for MRK activity by western blotting. Human HLA (hu-HLA) was used to identify the brain portions containing tumor cells of human origin. Tubulin was used as loading control.
To confirm that M443 administered into the brain inhibited MRK, brain extracts were obtained 18 hours after pump implantation, and MRK activity determined. […] The hu-HLA signal indicates the presence of tumor in the treated sample (lane 5).

p38 = test: IR-induced signaling downstream of MRK, phospho-p38 western blot; assay type: cell-based; conditions: UW228 cells, 500 nM M443 6 hours, 1 hour after IR
Protocol: as §2, §3

MRK [5] = molecular target: T2, MRK; test: MRK activity in K562 cells, western blot; assay type: cell-based; design: endogenous in cells; conditions: 1 μM, 6 hours
Protocol: as §1

MRK [6] = test: Irreversible inhibition of MRK activity after washout (P-MRK western blot); assay type: cell-based; conditions: cells expressing activatable MRK construct, pretreated 6 hours, washed, then homodimerizing drug
Protocol: FIG. 5. M443 inhibits MRK activity in an irreversible fashion. Cells expressing an activatable MRK construct were pretreated with the indicated inhibitors for 6 hours, then they were washed with PBS 3 times, incubated for 15 minutes, washed once more and after 15 minutes they were treated with the homodimerizing drug to activate MRK. Cell lysates were western blotted with the P-MRK antibody to detect active MRK (top blot). Histograms are data from quantified P-MRK bands from three independent experiments.

MRK [7] = molecular target: T2, MRK; design: endogenous in cells; host or cells: UW228 medulloblastoma cells; conditions: reference (6); cited from earlier work

| SMILES | inhibition of BCR-Abl in K562 cells (BCR-Abl) | survival benefit, M443 on its own ([1]; IMB226 orthotopic in nude mice, M443 into the tumor via osmotic pump, no IR) [days] | increase in survival, combination of M443 and IR ([1]; IMB226 orthotopic in nude mice, M443 into the tumor via osmotic pump, plus IR) [days] | tumor hemorrhage ([1]; M443-treated tumors) | radiosensitization effect on survival ([1]; p<0.0029, 2×2 factorial Cox model) | sensitization to killing by radiation (colony formation) [2] | activation of Chk2 by ionizing radiation (Chk2) | P-c-Abl signal in brain lysates (c-Abl) | sensitization to X-ray irradiation (MTT viability) (4T1 breast cancer cells) | pIC50 (MRK [3]) | P-MRK signal in brain lysates (MRK [4]) | total MRK levels in tumors (MRK [4]) | activation of p38 by ionizing radiation (p38) | inhibition of MRK activity in K562 cells (MRK [5]) | inhibition of MRK activity (P-MRK) after washout (MRK [6]) | binding to MRK (MRK [7]) |
| --- | --- | --- | --- | --- | --- | --- | --- | --- | --- | --- | --- | --- | --- | --- | --- | --- |
| C=CC(=O)N1CCCC(c2ccnc(Nc3cc(C(=O)Nc4cc(-n5cnc(C)c5)cc(C(F)(F)F)c4)ccc3C)n2)C1 (stereo not shown) [M443] | does not inhibit BCR-Abl | 5 | 16 | less hemorrhagic | very significant radiosensitization effect | strongly sensitized | greatly reduced | somewhat increased | sensitizes breast cancer cells to X-ray irradiation | ~6.90 | none of the fractions from the M443-treated animal had a detectable signal for P-MRK | strongly decreased | greatly reduced | as efficient as nilotinib | effectively inhibits MRK in an irreversible fashion | – |
| Cc1cn(-c2cc(NC(=O)c3ccc(C)c(Nc4nccc(-c5cccnc5)n4)c3)cc(C(F)(F)F)c2)cn1 [nilotinib] | – | – | – | – | – | – | – | – | – | – | – | – | – | – | – | binds strongly to MRK |
